Measurements from patent US11524960B2, “Heterobicyclic inhibitors of MAT2A and methods of use for treating cancer” (AGIOS PHARMACEUTICALS, INC., priority 2018, dated 2022).

Columns and labels:
MAT2A homodimer = molecular target: T1, MAT2A homodimer (Homo sapiens, UniProt P31153); assay: Biochemical assay: inhibition of MAT2A (phosphate release, PiColorLock Gold); settings: MAT2A IC50 score; read-out: Enzyme Inhibition (Example 275)
T1 construct: inferred from Ni sepharose purification and imidazole elution; made in house; host or cells: Sf9 insect cells, recombinant baculovirus (Bac to Bac, pFASTBAC1)
In short: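 Baculovirus/Sf9-expressed, Ni-purified MAT2A at 4 µg/mL was preincubated with compound for 60 min at 25 °C in 50 mM Tris pH 8.0, 50 mM KCl, 15 mM MgCl2, 0.3 mM EDTA, 0.005% BSA. Substrate mix (500 μM ATP, 400 μM L-methionine) was added and the reaction ran 60 min at 25 °C. Phosphate released stoichiometrically with SAM was measured colorimetrically against a phosphate standard curve.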

HCT116 MTAP−/− = assay: Inhibition of cellular proliferation (Cell Titer Glo), HCT116 MTAP−/−; assay type: cell-based, human; settings: Homo sapiens, HCT-116, 96 h, 4 days, IC50 score, read-out: 4 Day Relative Growth Inhibition (MTAP −/−; Example 277)
Protocol: (§1) Test compound impact on cancer cell growth was assessed by treating cancer cells with compound for 4 days and then measuring proliferation using an ATP-based cell proliferation readout (Cell Titer Glo, Promega Corporation).
(§2) In a typical assay an isogenic pair of HCT116 human colon carcinoma cell lines which vary only in MTAP deletion status (HCT116 MTAP+/+ and HCT116 MTAP−/−) were plated in 96-well dishes at appropriate cell density. Following 24 hours, cells were then treated with the candidate MAT2A inhibitor. Prior to addition to cells, the compound was first serially diluted in 100% DMSO, typically as a 3-fold serial dilution starting at 500× top dose with 10 dose points including DMSO only control. Compound was then transferred to a working stock plate in cell culture media by adding 5 μl of compound in DMSO to 495 μl of cell culture media. This working stock was then added to cells via a further 5-fold dilution, by adding 25 μl of working stock to 100 μl of cells in culture media. Following compound addition, cells were incubated at 37° C./5% C02 for 4 days.
(§3) To measure inhibition of cellular proliferation, cells were allowed to equilibrate to room temperature for 30 minutes, and were then treated with 125 μl of Cell Titer Glo reagent. The plate was then covered with aluminum foil and shaken for 15 minutes to ensure complete mixing and full cell lysis. Luminescent signal was then measured using a plate-based luminometer Veritas version 1.9.2 using ATP standard curve to confirm assay reproducibility from run to run. This luminescence measure was converted to a proliferation index by subtracting from each data point the ATP luminescence signal measured from a bank (no cells) well and dividing by the ATP luminescence signal measured in 0.2% DMSO control well adjusted for signal in blank well. Compound activity was then represented as a percentage change in proliferation relative to a within-plate DMSO control against log10 of compound concentration in molar (M) units.

[1] = test system: SAM in HCT116 human colon carcinoma cell line engineered to delete the MTAP gene (MTAP −/−); assay: Cellular assay of target engagement (SAM) by LC-MS/MS; assay type: cell-based; settings: Homo sapiens, HCT-116, 72 h, IC50 score, read-out: Cell 72 h SAM Inhibition (MTAP −/−; Example 276)
Protocol: Measurement of MAT2A activity in cells was made by direct quantitation of the abundance of the product of its enzymatic activity, SAM. Cancer cells were treated with candidate MAT2A inhibitors for a suitable incubation period, and the cells were then lysed using a reagent which quenched any further enzyme activity. Soluble metabolites including SAM were collected and SAM itself was directly measured from the lysate using quantitative LC-MS/MS.
A typical assay was performed using an HCT116 human colon carcinoma cell line which was genetically engineered to delete the MTAP gene (commercially available from Horizon Discovery). This cell line was utilized because it was determined that loss of the MTAP gene predicts sensitivity to MAT2A inhibitors. Cells were plated in 96-well dishes at appropriate cell density. Following 24 hours, cells were then treated with the candidate MAT2A inhibitor. Prior to addition to cells, the compound was first serially diluted in 100% DMSO, typically as a 3-fold serial dilution starting at 500× top dose with 10 dose points including DMSO only control. Compound was then transferred to a working stock plate in cell culture media by adding 5 μl of compound in DMSO to 495 μl of cell culture media. This working stock was then added to cells via a further 5-fold dilution, by adding 25 μl of working stock to 100 μl of cells in culture media. Following compound addition, cells were incubated at 37° C./5% CO2 for 72 hrs.
To quantitate SAM levels following compound treatment, cells were gently washed once in Ammonium Carbonate buffer (75 mM at pH 7.4), placed on dry ice, and lysed with metabolite extraction buffer (80% cold methanol and 20% water (v/v) with acetic acid at 1 M final concentration with 200 ng/mL deuterated d3-SAM as internal control). Following centrifugation at 4° C. at 3,200 rpm for 30 minutes, the supernatant was collected and stored at −80° C. until analysis by Liquid Chromatography with tandem Mass Spectrometry (LC-MS/MS). LC-MS/MS analysis was performed using an API6500 Mass Spectrometer (Sciex, Framingham, Mass., USA) operating in positive ion spray mode and equipped with a Waters UPLC Acquity (Waters, Milford, Mass., USA) BEH Amide column. Multiple Reaction Monitoring data was acquired for SAM and the d3-SAM standard, using a mass transition pair at m/z 399.2→250.1 and 402.2→250.1, respectively. In a typical LC-MS/MS analysis, the initial flow rate was 0.5 ml/min of 25% mobile phase A (acetonitrile and water at 5:95 (v/v) with 1% formic acid and 10 mM ammonium acetate) and 75% mobile phase B (acetonitrile and water at 95:5 (v/v) with 1% formic acid and 10 mM ammonium acetate), 0.2-0.5 minutes with 75%-35% mobile phase B, 25%-65% mobile phase A, at 0.5 min 65% mobile phase A and 35% mobile phase B, 1.0-1.1 minutes with 35%-75% mobile phase B, 65%-25% mobile phase A, at 1.1 min 25% mobile phase A and 75% mobile phase B with a total run time of 1.5 minutes.

HCT116 MTAP+/+ = assay: Inhibition of cellular proliferation (Cell Titer Glo), HCT116 MTAP+/+; assay type: cell-based, human; settings: Homo sapiens, HCT-116, 96 h, 4 days, IC50 score, read-out: 4 Day Relative Growth Inhibition (MTAP +/+; Example 277)
Protocol: as §1, §2, §3

T1 sequence (P31153 whole entry): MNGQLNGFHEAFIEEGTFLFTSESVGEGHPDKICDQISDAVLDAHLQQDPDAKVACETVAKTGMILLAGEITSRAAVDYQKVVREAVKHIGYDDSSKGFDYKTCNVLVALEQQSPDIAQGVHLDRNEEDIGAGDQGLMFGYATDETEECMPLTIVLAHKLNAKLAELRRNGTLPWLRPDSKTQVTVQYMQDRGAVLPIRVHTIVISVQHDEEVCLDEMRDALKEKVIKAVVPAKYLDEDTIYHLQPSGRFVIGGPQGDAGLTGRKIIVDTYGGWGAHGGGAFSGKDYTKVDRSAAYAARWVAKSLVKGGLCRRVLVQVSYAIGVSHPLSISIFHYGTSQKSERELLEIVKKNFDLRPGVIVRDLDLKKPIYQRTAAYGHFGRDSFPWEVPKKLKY

Cn1cc(-n2cc3cnc(NCC(F)(F)F)nc3c(-c3ccc(OC(F)F)cc3)c2=O)ccc1=O [Example 155, 8-(4-(difluoromethoxy)phenyl)-6-(1-methyl-6-oxo-1,6-dihydropyridin-3-yl)-2-((2,2,2-trifluoroethyl)amino)pyrido[4,3-d]pyrimidin-7(6H)-one]
IC50 (MAT2A homodimer): < 100 nM | IC50 (HCT116 MTAP−/−): 100 to 10000 nM | IC50 [1]: 100 to 1000 nM | IC50 (HCT116 MTAP+/+): 100 to 10000 nM

COc1ccc(-c2c(=O)n(-c3ccc4c(c3)N(C)CCO4)cc3cnc(NCC(F)(F)F)nc23)cc1 [Example 145, 8-(4-methoxyphenyl)-6-(4-methyl-3,4-dihydro-2H-benzo[b][1,4]oxazin-6-yl)-2-((2,2,2-trifluoroethyl)amino)pyrido[4,3-d]pyrimidin-7(6H)-one]
IC50 (MAT2A homodimer): < 100 nM | IC50 (HCT116 MTAP−/−): < 100 nM | IC50 [1]: < 100 nM | IC50 (HCT116 MTAP+/+): > 10000 nM

Cn1cc2cc(-n3cc4ccc(NCC(F)(F)F)nc4c(-c4ccc(Cl)cc4)c3=O)ccc2n1 [Example 236, 8-(4-chlorophenyl)-6-(2-methyl-2H-indazol-5-yl)-2-(2,2,2-trifluoroethylamino)-1,6-naphthyridin-7(6H)-one]
IC50 (MAT2A homodimer): < 100 nM | IC50 (HCT116 MTAP−/−): < 100 nM | IC50 [1]: < 100 nM | IC50 (HCT116 MTAP+/+): > 10000 nM

COc1ccc(-c2c(=O)n(-c3ccc4nccnc4c3)cc3cnc(NCC(F)(F)F)nc23)cc1 [Example 144, 8-(4-methoxyphenyl)-6-(quinoxalin-6-yl)-2-((2,2,2-trifluoroethyl)amino)pyrido[4,3-d]pyrimidin-7(6H)-one]
IC50 (MAT2A homodimer): < 100 nM | IC50 (HCT116 MTAP−/−): 100 to 10000 nM | IC50 [1]: 100 to 1000 nM | IC50 (HCT116 MTAP+/+): > 10000 nM

Cn1cc2cc(-n3cc4ccc(OCC(F)F)nc4c(-c4ccc(OC(F)F)cc4)c3=O)ccc2n1 [Example 126-A]
IC50 (MAT2A homodimer): < 100 nM | IC50 (HCT116 MTAP−/−): < 100 nM | IC50 [1]: < 100 nM | IC50 (HCT116 MTAP+/+): 100 to 10000 nM

CCOc1ccc2cn(-c3ccc4nn(C)cc4c3)c(=O)c(-c3ccc(C(F)(F)F)nc3)c2n1 [Example 220, 2-ethoxy-6-(2-methyl-2H-indazol-5-yl)-8-(6-(trifluoromethyl)pyridin-3-yl)-1,6-naphthyridin-7(6H)-one]
IC50 (MAT2A homodimer): < 100 nM | IC50 (HCT116 MTAP−/−): < 100 nM | IC50 [1]: < 100 nM | IC50 (HCT116 MTAP+/+): 100 to 10000 nM

O=c1c(-c2ccc(OC(F)F)cc2)c2nc(NCC(F)(F)F)ncc2cn1-c1ccc2c(c1)OCCO2 [Example 178, 8-(4-(difluoromethoxy)phenyl)-6-(2,3-dihydrobenzo[b][1,4]dioxin-6-yl)-2-((2,2,2-trifluoroethyl)amino)pyrido[4,3-d]pyrimidin-7(6H)-one]
IC50 (MAT2A homodimer): < 100 nM | IC50 (HCT116 MTAP−/−): 100 to 10000 nM | IC50 [1]: < 100 nM | IC50 (HCT116 MTAP+/+): 100 to 10000 nM

Cc1c2cc(-n3cc4cnc(NCC(F)(F)F)nc4c(-c4ccc(OC(F)F)cc4)c3=O)ccc2nn1C [Example 158, 8-(4-(difluoromethoxy)phenyl)-6-(2,3-dimethyl-2H-indazol-5-yl)-2-((2,2,2-trifluoroethyl)amino)pyrido[4,3-d]pyrimidin-7(6H)-one]
IC50 (MAT2A homodimer): < 100 nM | IC50 (HCT116 MTAP−/−): < 100 nM | IC50 [1]: < 100 nM | IC50 (HCT116 MTAP+/+): > 10000 nM

CCOc1ccc2cn(-c3ccc4nccnc4c3)c(=O)c(-c3ccc(Cl)cc3)c2n1 [Example 244, 8-(4-chlorophenyl)-2-ethoxy-6-(quinoxalin-6-yl)-1,6-naphthyridin-7(6H)-one]
IC50 (MAT2A homodimer): < 100 nM | IC50 (HCT116 MTAP−/−): < 100 nM | IC50 [1]: < 100 nM | IC50 (HCT116 MTAP+/+): 100 to 10000 nM

CC(C)Nc1ncc2cn(-c3ccc4ncccc4c3)c(=O)c(-c3ccc(OC(F)F)cc3)c2n1 [Example 182, 8-(4-(difluoromethoxy)phenyl)-2-(isopropylamino)-6-(quinolin-6-yl)pyrido[4,3-d]pyrimidin-7(6)-one]
IC50 (MAT2A homodimer): < 100 nM | IC50 (HCT116 MTAP−/−): 100 to 10000 nM | IC50 [1]: < 100 nM | IC50 (HCT116 MTAP+/+): > 10000 nM

CCOc1ccc2cn(-c3ccc4ncn(C)c4c3)c(=O)c(-c3ccc(Cl)cc3)c2n1 [Example 248, 8-(4-chlorophenyl)-2-ethoxy-6-(1-methyl-1H-benzo[d]imidazol-6-yl)-1,6-naphthyridin-7(6H)-one]
IC50 (MAT2A homodimer): < 100 nM | IC50 (HCT116 MTAP−/−): < 100 nM | IC50 [1]: < 100 nM | IC50 (HCT116 MTAP+/+): 100 to 10000 nM

Cn1cc2cc(-n3cc4ccc(OCC(F)(F)F)nc4c(-c4ccc(Cl)cc4)c3=O)ccc2n1 [Example 254, 8-(4-chlorophenyl)-6-(2-methyl-2H-indazol-5-yl)-2-(2,2,2-trifluoroethoxy)-1,6-naphthyridin-7(6H)-one]
IC50 (MAT2A homodimer): < 100 nM | IC50 (HCT116 MTAP−/−): < 100 nM | IC50 [1]: < 100 nM | IC50 (HCT116 MTAP+/+): > 10000 nM

CN(C)CCn1cc2cc(-n3cc4cnc(NCC(F)(F)F)nc4c(-c4ccc(Cl)cc4)c3=O)ccc2n1 [Example 137, 8-(4-chlorophenyl)-6-(2-(2-(dimethylamino)ethyl)-2H-indazol-5-yl)-2-((2,2,2-trifluoroethyl)amino)pyrido[4,3-d]pyrimidin-7(6H)-one]
IC50 (MAT2A homodimer): < 100 nM | IC50 (HCT116 MTAP−/−): 100 to 10000 nM | IC50 [1]: 100 to 1000 nM | IC50 (HCT116 MTAP+/+): > 10000 nM

CCOc1cnc2cn(-c3ccc4nn(C)cc4c3)c(=O)c(-c3ccc(OC(F)(F)F)nc3)c2n1 [Example 148-A]
IC50 (MAT2A homodimer): < 100 nM | IC50 (HCT116 MTAP−/−): 100 to 10000 nM | IC50 [1]: < 100 nM | IC50 (HCT116 MTAP+/+): 100 to 10000 nM

[2H]C([2H])([2H])Oc1ccc(-c2c(=O)n(-c3ccc4nn(C)cc4c3)cc3ccc(OCC)nc23)cc1 [Example 117-A]
IC50 (MAT2A homodimer): < 100 nM | IC50 (HCT116 MTAP−/−): < 100 nM | IC50 [1]: < 100 nM | IC50 (HCT116 MTAP+/+): 100 to 10000 nM

CCOc1ccc2cn(-c3ccc4nn(CCS(C)(=O)=O)cc4c3)c(=O)c(-c3ccc(Cl)cc3)c2n1 [Example 225, 8-(4-chlorophenyl)-2-ethoxy-6-(2-(2-(methylsulfonyl)ethyl)-2H-indazol-5-yl)-1,6-naphthyridin-7(6H)-one]
IC50 (MAT2A homodimer): 100 to 1000 nM | IC50 (HCT116 MTAP−/−): 100 to 10000 nM | IC50 [1]: < 100 nM | IC50 (HCT116 MTAP+/+): 100 to 10000 nM

CCOc1ccc2cn(-c3ccc4nn(C)cc4c3)c(=O)c(-c3ccc(OC(F)(F)F)cc3)c2n1 [Example 217, 2-ethoxy-6-(2-methyl-2H-indazol-5-yl)-8-(4-(trifluoromethoxy)phenyl)-1,6-naphthyridin-7(6H)-one]
IC50 (MAT2A homodimer): < 100 nM | IC50 (HCT116 MTAP−/−): 100 to 10000 nM | IC50 [1]: < 100 nM | IC50 (HCT116 MTAP+/+): > 10000 nM
